# Laboratory results: article PMC9298526, “RapD Is a Multimeric Calcium-Binding Protein That Interacts With the Rhizobium leguminosarum Biofilm Exopolysaccharide, Influencing the Polymer Lengths” (Frontiers in Microbiology, 2022)
# Several values for one entry are separate records, joined by “and”; a condition that tells them apart may be missing. Equal values may be shown once.
# T1: RapD (Rhizobium johnstonii, UniProt Q1MFT2)
# T1 construct: gene RL2702
# T1 sequence (Q1MFT2 1-277): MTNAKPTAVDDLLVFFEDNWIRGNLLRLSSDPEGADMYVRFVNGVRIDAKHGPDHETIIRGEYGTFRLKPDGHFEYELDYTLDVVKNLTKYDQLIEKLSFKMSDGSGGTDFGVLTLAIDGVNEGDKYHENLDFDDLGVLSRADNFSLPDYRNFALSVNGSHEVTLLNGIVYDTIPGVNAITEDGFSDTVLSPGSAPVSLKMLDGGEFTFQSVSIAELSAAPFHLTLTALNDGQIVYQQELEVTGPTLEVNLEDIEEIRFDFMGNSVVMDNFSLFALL
# Legend:
# RapD = molecular target: T1, RapD; assay: binding inhibition assay (ELISA): RapD to immobilized EPS; conditions: with calcium (TBS, 1 mM CaCl2); room temperature; galactose 0-300 mM preincubated with RapD; proteinase K treated Rlv 3841 EPS immobilized; indirect competition read-out
# [1] = molecular target: the molecule itself; assay: SEC with 90° static light scattering (SLS) and refractometer; Superdex 200, 100 ul of RapD at 1 mg/ml pre-incubated with 1.25 mM CaCl2, 20 mM Tris-HCl, 0.15 M NaCl, pH 8, 0.4 ml/min, 20°C, BSA as standard
Molecule,partial inhibition of EPS binding (RapD),stoichiometry N [1]
OC[C@H]1OC(O)[C@H](O)[C@@H](O)[C@H]1O (some centres unmarked) [galactose],RapD interaction with the EPS was partially inhibited in the presence of high concentrations of galactose,–
"Recombinant full-length RapD (natural protein, Rhizobium leguminosarum bv. viciae 3841, UniProt Q1MFT2 1-277, looked up, N-terminal Ra/CHDL domain (aa 1-122) and C-terminal region (aa 123-277); Cloned NdeI-NotI into pET-22b; The protein was decalcified with EGTA before calcium was added; also called Apo-RapD; RapD-Apo; source: E. coli BL21 (DE3) carrying pET22brapD, purified (Ni-NTA HiTrap Chelating, dialysis against 10 mM EGTA, Superdex 200); not shown: His tag (from the vector pET-22b)) MTNAKPTAVDDLLVFFEDNWIRGNLLRLSSDPEGADMYVRFVNGVRIDAKHGPDHETIIRGEYGTFRLKPDGHFEYELDYTLDVVKNLTKYDQLIEKLSFKMSDGSGGTDFGVLTLAIDGVNEGDKYHENLDFDDLGVLSRADNFSLPDYRNFALSVNGSHEVTLLNGIVYDTIPGVNAITEDGFSDTVLSPGSAPVSLKMLDGGEFTFQSVSIAELSAAPFHLTLTALNDGQIVYQQELEVTGPTLEVNLEDIEEIRFDFMGNSVVMDNFSLFALL",–,3 and 2
